Laboratory results as given in ChEMBL document CHEMBL1201862, “PubChem BioAssay data set” (2004).
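Interpolation was linear, between the two tested concentrations surrounding the appropriate level; five concentrations were tested over 48 hours in 96-well plates. GI50 is the concentration that inhibits growth by half.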 Calls of active or inactive are those of the source. Cut-off read from the data, not from the text of the source: active = GI50 up to about 1.1 µM and inactive = higher.

Key:
Test in all cases: NCI-60 cell line screen, 48 h
786-0 = test system: 786-0
A498 = test system: A498
CAKI-1 = test system: CAKI-1
CCRF-CEM = test system: CCRF-CEM
COLO 205 = test system: COLO 205
DLD-1 = test system: DLD-1
DMS-114 = test system: DMS-114
DMS-273 = test system: DMS-273
HCC 2998 = test system: HCC 2998
HCT-116 = test system: HCT-116
HL-60 = test system: HL-60
HOP-62 = test system: HOP-62
HOP-92 = test system: HOP-92
IGROV-1 = test system: IGROV-1
K562 = test system: K562
LXFL 529 = test system: LXFL 529
M14 = test system: M14
M19-MEL = test system: M19-MEL
MOLT-4 = test system: MOLT-4
Malme-3M = test system: Malme-3M
NCI-H226 = test system: NCI-H226
NCI-H23 = test system: NCI-H23
NCI-H460 = test system: NCI-H460
NCI-H522 = test system: NCI-H522
OVCAR-4 = test system: OVCAR-4
RPMI-8226 = test system: RPMI-8226
SF-268 = test system: SF-268
SF-539 = test system: SF-539
SK-MEL-28 = test system: SK-MEL-28
SK-MEL-2 = test system: SK-MEL-2
SK-OV-3 = test system: SK-OV-3
SN12C = test system: SN12C
SNB-75 = test system: SNB-75
SNB-78 = test system: SNB-78
SR = test system: SR
UACC-62 = test system: UACC-62
UO-31 = test system: UO-31
XF498 = test system: XF498
HCT-15 = test system: HCT-15
HT-29 = test system: HT-29
KM-20L2 = test system: KM-20L2
KM12 = test system: KM12
OVCAR-3 = test system: OVCAR-3
OVCAR-5 = test system: OVCAR-5
OVCAR-8 = test system: OVCAR-8
RXF 393 = test system: RXF 393
SF-295 = test system: SF-295
SK-MEL-5 = test system: SK-MEL-5
SNB-19 = test system: SNB-19
SW-620 = test system: SW-620
TK-10 = test system: TK-10
U-251 = test system: U-251

SMILES	GI50 (CAKI-1)	GI50 (CCRF-CEM)	GI50 (COLO 205)	GI50 (DLD-1)	GI50 (DMS-114)	GI50 (HCC 2998)	GI50 (HOP-92)	GI50 (IGROV-1)	GI50 (K562)	GI50 (LXFL 529)	GI50 (M14)	GI50 (M19-MEL)	GI50 (MOLT-4)	GI50 (Malme-3M)	GI50 (NCI-H23)	GI50 (NCI-H522)	GI50 (OVCAR-4)	GI50 (SK-MEL-28)	GI50 (SK-MEL-2)	GI50 (SK-OV-3)	further results
Cc1ncc(CI)c(CI)c1O	63.2 µM (inactive)	3.93 µM (inactive)	> 100 µM (inactive)	24.7 µM (inactive)	> 100 µM (inactive)	18.8 µM (inactive)	> 100 µM (inactive)	> 100 µM (inactive)	5.85 µM (inactive)	> 100 µM (inactive)	> 100 µM (inactive)	> 100 µM (inactive)	12.7 µM (inactive)	17.5 µM (inactive)	19.4 µM (inactive)	3.34 µM (inactive)	> 100 µM (inactive)	18 µM (inactive)	21.3 µM (inactive)	> 100 µM (inactive)	GI50 (786-0): 16.9 µM (inactive); GI50 (A498): > 100 µM (inactive); GI50 (DMS-273): 14.8 µM (inactive); GI50 (HCT-116): 15.6 µM (inactive); GI50 (HL-60): 2.22 µM (inactive); GI50 (HOP-62): 17.2 µM (inactive); GI50 (NCI-H226): 2.39 µM (inactive); GI50 (NCI-H460): > 100 µM (inactive); GI50 (RPMI-8226): 6.7 µM (inactive); GI50 (SF-268): 24.3 µM (inactive); GI50 (SF-539): 23.4 µM (inactive); GI50 (SN12C): 17.2 µM (inactive); GI50 (SNB-75): 16.8 µM (inactive); GI50 (SNB-78): > 100 µM (inactive); GI50 (SR): 12.6 µM (inactive); GI50 (UACC-62): > 100 µM (inactive); GI50 (UO-31): 2.5 µM (inactive); GI50 (XF498): 20.1 µM (inactive)
COc1cc(/C=C(\NC(=O)c2ccccc2)c2nc3cc([N+](=O)[O-])ccc3[nH]2)cc(OC)c1OC	68.5 µM (inactive)	35.9 µM (inactive)	> 100 µM (inactive)	57.3 µM (inactive)	57.9 µM (inactive)	> 100 µM (inactive)	57 µM (inactive)	> 100 µM (inactive)	34.3 µM (inactive)	35.4 µM (inactive)	> 100 µM (inactive)	> 100 µM (inactive)	29 µM (inactive)	> 100 µM (inactive)	> 100 µM (inactive)	30.2 µM (inactive)	38.5 µM (inactive)	> 100 µM (inactive)	> 100 µM (inactive)	78.3 µM (inactive)	GI50 (HCT-15): 40 µM; GI50 (HT-29): > 100 µM (inactive); GI50 (KM-20L2): 78.7 µM (inactive); GI50 (KM12): 84.5 µM (inactive); GI50 (OVCAR-3): > 100 µM (inactive); GI50 (OVCAR-5): > 100 µM (inactive); GI50 (OVCAR-8): 96.4 µM (inactive); GI50 (RXF 393): > 100 µM (inactive); GI50 (SF-295): > 100 µM (inactive); GI50 (SK-MEL-5): 96.6 µM (inactive); GI50 (SN12C): > 100 µM (inactive); GI50 (SNB-19): > 100 µM (inactive); GI50 (SNB-78): > 100 µM (inactive); GI50 (SR): 42.2 µM (inactive); GI50 (SW-620): 76.7 µM (inactive); GI50 (TK-10): > 100 µM (inactive); GI50 (U-251): > 100 µM (inactive); GI50 (UACC-62): > 100 µM (inactive); GI50 (UO-31): 23.1 µM (inactive); GI50 (XF498): > 100 µM (inactive)
